Data set [1] in a line: Toxicity against Artemia salina. It is filed as organism-based. To be noted: in vivo, read-out: LD50 (the source's name).
The next data set has as its system Escherichia coli. The data set is described as follows: Antibacterial activity against Escherichia coli. It is filed as functional, organism-based.
The next data set has as its system Candida albicans. The data set is described as follows: […] activity against Candida albicans. Type of data set: functional, organism-based.

Molecules are shown by their SMILES. Values after ≈ are worked out from the molar mass of the structure shown. Active and inactive are the calls of the source. The calls are words filed in the database; no cut-off is given here.

`CC(=O)O[C@H]1CC2=C(CC[C@H]3C(C)(C)[C@@H](OC(C)=O)[C@H](OC(=O)C[C@@](C)(O)CC(=O)O)C[C@]23C)[C@]2(C)CC[C@H]([C@H]3CC[C@H](C(C)(C)O)O[C@@H]3O)[C@@]12C` [HEBELOMIC ACID B]: the LC50 in data set [1] stood at 386 µg/mL (≈ 525 µM). Moreover, the outcome in the data set on Escherichia coli and in the data set with Candida albicans was inactive.

With `CC(=O)O[C@H]1[C@H](OC(=O)C[C@@](C)(O)CC(=O)O)C[C@]2(C)C3=C(CC[C@H]2C1(C)C)[C@]1(C)CC[C@H]([C@H]2CC[C@H](C(C)(C)O)O[C@@H]2O)[C@@]1(C)[C@@H](O)C3` [HEBELOMIC ACID A], the LC50 in data set [1] was 96.5 µg/mL (≈ 139 µM). In addition, the result in the data set with Escherichia coli and in the data set on Candida albicans was inactive.

Take `CC(=O)O[C@H]1O[C@@H](C(C)(C)O)CC[C@@H]1[C@H]1CC[C@@]2(C)C3=C(CC[C@]12C)[C@@]1(C)C[C@@H](OC(=O)C[C@@](C)(O)CC(=O)O)[C@H](OC(C)=O)C(C)(C)[C@@H]1CC3` [HEBELOMIC ACID F]: in data set [1], the LC50 worked out at 19.7 µg/mL (≈ 27.4 µM). Also, the result in the data set on Escherichia coli and in the data set on Candida albicans was inactive.

(Values after ChEMBL document CHEMBL1159268, “The structures of new lanostane triterpenes from the fruiting bodies of Hebeloma senescens” (J Nat Prod, 1995).)
